The results in this text go back to ChEMBL document CHEMBL3400102, “Design, synthesis and biological evaluation of N-phenylthieno[2,3-d]pyrimidin-4-amines as inhibitors of FGFR1” (Bioorg Med Chem, 2015).

The target of one assay is Fibroblast growth factor receptor 1 (Homo sapiens, UniProt P11362). Briefly: Inhibition of FGFR1 (unknown origin) using KKKSPGEYVNIEFG peptide substrate assessed as incorporation of [32P] into peptide by scintillation counting analysis.
Chain of Fibroblast growth factor receptor 1 (P11362 whole entry): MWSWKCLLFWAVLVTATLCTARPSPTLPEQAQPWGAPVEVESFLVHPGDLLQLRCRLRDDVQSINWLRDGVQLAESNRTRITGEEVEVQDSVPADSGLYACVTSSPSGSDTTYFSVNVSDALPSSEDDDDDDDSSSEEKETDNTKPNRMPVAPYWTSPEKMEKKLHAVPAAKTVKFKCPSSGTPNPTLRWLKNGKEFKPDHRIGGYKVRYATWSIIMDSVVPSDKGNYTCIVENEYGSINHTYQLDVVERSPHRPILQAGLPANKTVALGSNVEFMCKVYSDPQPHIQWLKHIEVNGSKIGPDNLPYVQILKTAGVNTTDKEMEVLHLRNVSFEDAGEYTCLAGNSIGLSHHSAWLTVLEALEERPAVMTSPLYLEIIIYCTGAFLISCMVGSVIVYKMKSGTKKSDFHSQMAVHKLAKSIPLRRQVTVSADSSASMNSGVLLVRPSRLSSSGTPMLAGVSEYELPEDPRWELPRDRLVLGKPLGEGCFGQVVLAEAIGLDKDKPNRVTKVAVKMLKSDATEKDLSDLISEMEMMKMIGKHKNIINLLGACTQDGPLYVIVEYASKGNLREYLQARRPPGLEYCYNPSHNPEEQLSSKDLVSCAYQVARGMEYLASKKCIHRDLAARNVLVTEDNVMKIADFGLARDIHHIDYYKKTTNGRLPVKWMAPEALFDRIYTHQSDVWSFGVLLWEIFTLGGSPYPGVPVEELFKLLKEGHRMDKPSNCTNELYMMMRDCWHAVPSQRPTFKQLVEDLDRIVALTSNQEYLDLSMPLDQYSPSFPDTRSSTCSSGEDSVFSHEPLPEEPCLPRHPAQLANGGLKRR
Conditions: not given
For the compound `CCOC(=O)c1sc2ncnc(Nc3cccc(C(=O)O)c3)c2c1C`, the half-inhibitory concentration (IC50) was above 30 µM. The same measure, in the same setting: the figure for `Cc1ccc(-c2csc3ncnc(Nc4ccc(C(=O)O)cc4)c23)cc1` is above 30 µM; for `CCOc1ccc(-c2csc3ncnc(Nc4cccc(O)c4)c23)cc1` it is 12.5 µM; for `Cc1cc2c(Nc3ccc(O)cc3)ncnc2s1` it is 5.6 µM.

Take `Oc1ccc(Nc2ncnc3scc(-c4ccccc4)c23)cc1`: the IC50 came out at 1.66 µM. Same read-out and setting: the same measure for `Fc1ccc(Nc2ncnc3sc4c(c23)CCCC4)cc1`: 3.2 µM; for `Fc1ccc(Nc2ncnc3scc(-c4ccc(Cl)cc4)c23)cc1`: above 30 µM; for `CCOC(=O)c1sc2ncnc(Nc3ccc(F)cc3)c2c1C`: above 30 µM. Consider `Fc1ccccc1Nc1ncnc2sc3c(c12)CCCCC3`, for which the half-maximal inhibitory concentration (IC50) is 4.3 µM. The same measure, in the same setting: the same measure for `Fc1ccccc1Nc1ncnc2sc(-c3ccccc3)cc12`: 18.2 µM; for `Fc1ccccc1Nc1ncnc2scc(-c3ccccc3)c12`: above 30 µM. The same measure, in the same setting: the same measure for `Fc1ccc(Nc2ncnc3scc(-c4ccccc4)c23)cc1`: 6.3 µM; for `Fc1ccc(Nc2ncnc3sc(-c4ccccc4)cc23)cc1`: 4.3 µM; for `Cc1ccc(-c2csc3ncnc(Nc4ccc(F)cc4)c23)cc1`: above 30 µM.

Regarding `Cc1ccc(-c2csc3ncnc(Nc4cccc(C(=O)O)c4)c23)cc1`, the IC50 is 11 µM.

Regarding `Fc1ccc(Nc2ncnc3sc4c(c23)CCCCC4)cc1Cl`, the IC50 is 1.6 µM. With `CCOC(=O)c1sc2ncnc(Nc3ccc(OC)cc3)c2c1C`, the 50% inhibitory concentration (IC50) is above 30 µM. Same read-out and setting: the figure for `COc1ccc(Nc2ncnc3scc(-c4ccccc4)c23)cc1` is 3 µM. On the same count and under the same terms, the figure for `COc1ccc(Nc2ncnc3scc(-c4ccc(C)cc4)c23)cc1` is 5 µM. For `CCOC(=O)c1sc2ncnc(Nc3cccc(OC)c3)c2c1C`, the IC50 is above 30 µM. In the case of `COc1cccc(Nc2ncnc3scc(-c4ccc(Cl)cc4)c23)c1`, the half-maximal inhibitory concentration (IC50) was above 30 µM. On the same count and under the same terms, the same measure for `COc1cccc(Nc2ncnc3scc(-c4ccccc4)c23)c1`: 2.5 µM; for `CCOc1ccc(-c2csc3ncnc(Nc4ccc(O)cc4)c23)cc1`: above 30 µM; for `Cc1nc(Nc2ccc(O)cc2)c2cc(-c3ccccc3)sc2n1`: 5 µM. The same measure, in the same setting: the same measure for `Cc1sc2ncnc(Nc3ccc(O)cc3)c2c1-c1ccccc1`: 1.25 µM; for `Oc1ccc(Nc2ncnc3sc(-c4ccccc4)cc23)cc1`: 1.2 µM; for `Oc1ccc(Nc2ncnc3scc(-c4ccc(Cl)cc4)c23)cc1`: 3 µM.

Regarding `Cc1ccc(-c2csc3ncnc(Nc4cccc(O)c4)c23)cc1`, the 50% inhibitory concentration (IC50) turned out to be 0.7 µM.

`Oc1cccc(Nc2ncnc3scc(-c4ccc(Cl)cc4)c23)c1`: the IC50 was 0.5 µM. Still for that read-out and setting: the figure for `CCOC(=O)c1sc2ncnc(Nc3cccc(O)c3)c2c1C` is 0.5 µM; for `Oc1cccc(Nc2ncnc3scc(-c4ccccc4)c23)c1` it is 0.18 µM.

With `Oc1cccc(Nc2ncnc3sc(-c4ccccc4)cc23)c1`, the concentration for half-maximal inhibition (IC50) stood at 0.16 µM.

Tested on in another assay: not listed separately
Briefly: Antiproliferative activity against human KG1 cells after 72 hrs by MTT assay. The class given is functional, cell-based. The settings on record: KG-1, 72 h. For orientation: Tetrazolium assays rely on reduction of a dye to a coloured formazan, in cell work by metabolically active cells.
For the compound `Cc1ccc(-c2csc3ncnc(Nc4cccc(O)c4)c23)cc1`, the 50% inhibitory concentration (IC50) was determined as 33.9 µM. Same read-out and setting: the same measure for `Oc1cccc(Nc2ncnc3scc(-c4ccc(Cl)cc4)c23)c1`: 50 µM; for `Oc1cccc(Nc2ncnc3scc(-c4ccccc4)c23)c1`: 26.2 µM; for `Oc1cccc(Nc2ncnc3sc(-c4ccccc4)cc23)c1`: 16.2 µM.

A word on the IC50: it is the concentration that gives 50% inhibition.
